{
  "source": "patent US20060293288A1",
  "about": "“Use of resolvins to treat gastrointestinal diseases” (priority 2005, published 2006)",
  "key": {"[1]": {"tested_on": "leukocyte infiltration in zymosan-induced peritonitis", "assay": "zymosan-induced peritonitis, leukocyte (PMN) infiltration", "assay_type": "in vivo, mice", "details": "for relative potency in the peritonitis model: compared with RvE1 or indomethacin; for effect on PMN infiltration/migration into the peritoneum (in words): peritonitis model, mice", "description": "FIG. 1. (A) Inflammatory exudates from mice treated with EPA and aspirin generate RvE1 in vivo. (B) Inhibition of leukocyte infiltration in zymosan-induced peritonitis treated with EPA and aspirin. Mice were pre-treated for 30 min by aspirin (0.5 mg) intraperitoneally followed by EPA (0.3 mg) and zymosan. Peritoneal lavages were collected at 2 h and cells were enumerated. (n=4, *p<0.05 compared with vehicle control, **p<0.05 compared with aspirin alone). (C) Inhibition of leukocyte infiltration in zymosan-induced peritonitis. RvE1 (100 ng) was injected intravenously into tail veins followed by zymosan A into the peritoneum. Mice were sacrificed, and peritoneal lavages were collected (2 h) and cells enumerated (n=3, *p<0.01 compared with vehicle control).\nInflammatory exudates were initiated with intraperitoneal injection of 1 ml zymosan A (1 mg/ml) with 6-8-wk-old male FvB mice. Mice were pre-treated by aspirin (0.5 mg) i.p. followed by EPA (0.3 mg) and zymosan. Peritoneal lavages were collected at 2 h and cells were enumerated. Cell-free exudates were extracted by C18 solid phase extraction with deuterium-LTB4 (Cascade, UK) as an internal standard for LC-UV-MS/MS analysis using a Finnigan LCQ liquid chromatography ion trap tandem mass spectrometer equipped with a LUNA C18-2 (100×2 mm×5 μm) column and UV diode array detector using mobile phase (methanol:water:acetate at 65:35:0.01) from 0 to 8 min, ramped to methanol 8 to 30 min, with a 0.2 ml/min flow rate."}, "gastric damage": {"tested_on": "gastric damage", "details": "induced by dextran sodium sulfate or aspirin; cited from earlier work"}, "[2]": {"tested_on": "dextran sodium sulfate (DSS)-induced colitis", "details": "cited from earlier work"}, "TNBS-induced colitis [3]": {"tested_on": "TNBS-induced colitis", "assay": "grading of histologic change of the colon in TNBS colitis", "assay_type": "in vivo, BALB/c mice", "details": "day 4, 1.0 μg/mouse i.p.", "description": "FIG. 3. Colon histopathology from RvE1 or ATLa-treated mice. Colon section of vehicle-treated mouse (A), 4 days after the induction of colitis by TNBS (B), mice received RvE1 (C) and ATLa (D). (E) Histological scores of the colon of mice receiving vehicle, TNBS only, TNBS plus RvE1, or TNBS plus ATLa. *p<0.05 and **p<0.01, respectively.\nTo generate a more chronic T cell-mediated inflammation, BALB/c mice were sensitized with 150 μl of the haptenating agent 2,4,6-trinitrobenzene sulfonic acid (TNBS; Sigma-Aldrich, St. Louis, Mo.) of 2.5% in 50% ethanol by skin painting on day −7. On day 0, 150 μl of 1% TNBS in 50% ethanol was administered intrarectally via a 3.5 F catheter under anesthesia with tribromoethanol. To ensure distribution of the TNBS within the entire colon and cecum, mice were held in a vertical position for 1 min after the instillation. On day 4, mice were killed and immunopathologic characterization was performed as previously described (23).\nThe degree of inflammation on microscopic cross sections of the colon was graded semi quantitatively. Severity of colitis was assessed based on five histologic criteria, each graded on a […] (0=absent, 1=mild, 2=moderate, 3=severe): mononuclear inflammation, neutrophilic infiltration/crypt abscesses, crypt hyperplasia, mucosal injury/ulceration, and mucosal hypervascularity. The five scores were summed to give a total score. […]"}, "[4]": {"tested_on": "mRNA expression of inflammatory mediators in colons", "assay": "quantitative real-time PCR of inflammatory mediators in colon", "assay_type": "in vivo, mice", "details": "day 4, TNBS colitis", "text": "(§1) FIG. 4. RvE1 reduces leukocyte infiltration and pro-inflammatory mediators in colitis. (A) Myeloperoxidase (MPO) activity of colons of mice treated with TNBS alone or mice given RvE1. *p<0.0001 versus mice treated with TNBS alone. (B) Anti-TNBS IgG level in serum on day 4 from mice treated with TNBS alone or receiving RvE1 as noted. *p<0.01. (C) Quantitative real time PCR analysis of mRNA expression of inflammatory mediators in colons obtained on day 4 from control mice (white column), mice treated with TNBS alone (black column) or receiving TNBS plus RvE1 (gray column). *p<0.01.\nTotal RNA from colon was prepared using Trizol™ reagent (Life Technologies, Rockville, Md.). Real-time PCR was performed using the LightCycler FastStart DNA Master SYBR Green I (Roche Diagnostics GmbH, Mannheim, Germany) according to manufacturer's protocol. Primers for IFN-γ, IL-12p40, TNF-α, IL-4, TGF-β, IL-10, iNOS and glyceraldehyde-3-phosphate dehydrogenase (GAPDH) were designed as described (26). Primers for COX-2 were designed as follows: 5′-[…]-3′ and 5′-[…]-3′. Quantities of specific mRNA in the sample were measured according to the corresponding gene-specific standard curve. The relative expression of each gene was normalized against the housekeeping gene GAPDH."}, "anti-TNBS IgG": {"tested_on": "anti-TNBS IgG", "assay": "detection of TNP-specific antibodies in serum with ELISA", "assay_type": "in vivo, mice", "details": "day 4", "text": "as §1\nSera were collected on day 4, and anti-trinitrophenyl residue (TNP) antibodies were determined by ELISA as previously described with a minor modification (25). Briefly, 100 mg of OVA was dissolved in 4 ml of 0.05M carbonate-bicarbonate buffer at pH 9.6 followed by adding 1 ml of TNBS 5% solution and incubating for 2 h at room temperature. TNP-OVA was dialyzed in PBS and then stored at −80° C. until use. For the detection of TNP-specific antibodies, TNP-OVA was dissolved at the concentration of 0.1 mg/ml in 0.05M carbonate-bicarbonate buffer at pH 9.6 and 100 μl was placed in each well of 96-well microtiter plates for coating. After blocking with 1% bovine serum albumin in PBS, plates were incubated with appropriately diluted serum. […]"}, "[5]": {"tested_on": "Myeloperoxidase (MPO) activity of colons", "assay": "myeloperoxidase (MPO) assay of colon tissue in TNBS colitis", "assay_type": "in vivo, mice", "details": "versus control vehicle", "text": "as §1\nEach tissue sample was assessed for PMN content and infiltration. Tissues were homogenized in potassium phosphate buffer (pH 6.0) containing 0.5% hexadecyltrimethylammonium bromide, followed by three cycles of sonication and freeze-thawing. The particulate matter was removed by centrifugation (16,000 g for 20 min), and 75 μl of supernatant was added to 925 μl of potassium phosphate buffer (pH 6.0) containing 0.2 mg/ml o-dianisidine dihydrochloride (Sigma, St. Louis, Mo.) and 0.0006% hydrogen peroxide. Changes in OD were monitored at 460 nm at 25° C., at 30- and 90-s intervals. Calibration curve for conversion of MPO activities to PMN number was performed as in ref. 24."}, "TNBS-induced colitis [6]": {"tested_on": "TNBS-induced colitis", "assay": "TNBS-induced colitis (mortality, body weight, colon macroscopy)", "assay_type": "in vivo, BALB/c mice", "quoted_text": "(C) Macroscopic appearance of the colon of mice receiving vehicle, TNBS only, or mice receiving RvE1 (0.05 mg/kg).\nRvE1 was administered intraperitoneally (1.0 μg/mouse; 50 μg/kg) on the indicated days before the induction of colitis (prevention mode). Aspirin-triggered lipoxin A4 analog (ATLa; 15-epi-16-(p-fluoro)phenoxy-LXA4) was given at the same dose as a direct comparison with RvE1."}},
  "note": "“Also recorded” adds a separate entry of the source.",
  "data": [
    {"compound": "CCC(O)/C=C/C=C\\C/C=C\\C/C=C\\C=C\\[C@@H](O)CCCC(=O)O", "note": "(mixture of isomers) [5S,18(+/−)-diHEPA]", "values": [
      {"measurement": "relative potency in the peritonitis model", "setting": "[1]", "value": "equipotent to Resolvin E1"},
      {"measurement": "effect on PMN infiltration/migration into the peritoneum (in words)", "setting": "[1]", "value": "downregulation of PMN infiltration"}
    ]},
    {"compound": "CC/C=C\\C[C@H](O)/C=C/C=C\\C=C\\[C@@H](O)C/C=C\\CC#CCCC(=O)O", "note": "[4,5-dehydro 10,17S-dihydroxy DHA]", "values": [
      {"measurement": "inhibition of the PMN infiltration", "setting": "[1]; 100 ng dose, murine zymosan A-induced peritonitis", "value": 40, "unit": "%"}
    ]},
    {"compound": "CC/C=C\\C[C@H](O)/C=C/C=C/C=C/C(O)C/C=C\\C/C=C\\CCC(=O)O", "note": "(stereo partly drawn) [10,17 di-HDHA, 10,17S-dihydroxy-docosa-4Z,7Z,11E,13,15E,19Z-hexaenoic acid]", "values": [
      {"measurement": "effect on PMN infiltration/migration into the peritoneum (in words)", "setting": "[1]", "value": "inhibited both PMN migration into the peritoneum"}
    ]},
    {"compound": "CCCCC[C@@H](O)/C=C/C=C\\C=C\\C=C\\[C@@H](O)[C@@H](O)CCCC(=O)O", "note": "[15-epi-lipoxin A4]", "values": [
      {"measurement": "protection against gastric damage", "setting": "gastric damage", "value": "protective"}
    ]},
    {"compound": "CC[C@@H](O)/C=C/C=C\\C/C=C\\C/C=C\\C/C=C\\CCCC(=O)O", "note": "[18R-HEPE, reference compound]", "values": [
      {"measurement": "relative potency in the peritonitis model", "setting": "[1]", "value": "much less potent"}
    ]},
    {"compound": "O=C(O)CCC[C@H](O)[C@H](O)/C=C/C=C/C=C\\C=C\\[C@H](O)COc1ccc(F)cc1", "note": "[ATLa, 15-epi-16-(p-fluoro)phenoxy-LXA4, reference compound]", "values": [
      {"measurement": "protection against DSS-induced colitis", "setting": "[2]", "value": "protective"},
      {"measurement": "histologic features of colitis", "setting": "TNBS-induced colitis [3]", "value": "dramatic protection"}
    ]},
    {"compound": "CC[C@@H](O)/C=C/C=C\\C[C@@H](O)/C=C/C=C/C=C\\[C@@H](O)CCCC(=O)O", "note": "[RvE1, 5S,12R,18R-trihydroxy-6Z,8E,10E,14Z,16E-eicosapentaenoic acid]", "values": [
      {"measurement": "COX-2 mRNA level in colon", "setting": "[4]", "value": "significant reduction"},
      {"measurement": "IFN-γ mRNA level in colon", "setting": "[4]", "value": "direct effects were not observed"},
      {"measurement": "IL-4 mRNA level in colon", "setting": "[4]", "value": "direct effects were not observed"},
      {"measurement": "IL-10 mRNA level in colon", "setting": "[4]", "value": "direct effects were not observed"},
      {"measurement": "IL-12p40 mRNA level in colon", "setting": "[4]", "value": "significant reduction"},
      {"measurement": "TGF-β mRNA level in colon", "setting": "[4]", "value": "did not show significant differences"},
      {"measurement": "TNF-α mRNA level in colon", "setting": "[4]; 0.05 mg/kg", "value": "significant reduction; also recorded: dramatic decrease"},
      {"measurement": "iNOS mRNA level in colon", "setting": "[4]; 0.05 mg/kg", "value": "significant reduction; also recorded: dramatic decrease"},
      {"measurement": "serum anti-TNBS IgG level", "setting": "anti-TNBS IgG", "value": "decreased"},
      {"measurement": "reduction of leukocyte infiltration", "setting": "[1]; 100 ng/mouse intravenously, zymosan peritonitis, lavage at 2 h", "value": 50, "unit": "%"},
      {"measurement": "relative potency in the peritonitis model", "setting": "[1]", "value": "more potent than indomethacin"},
      {"measurement": "myeloperoxidase (MPO) activity in colon", "setting": "[5]", "value": "significantly lower levels"},
      {"measurement": "protection against the development of TNBS colitis", "setting": "TNBS-induced colitis [6]; 0.05 mg/kg", "value": "complete protection"},
      {"measurement": "overall mortality", "setting": "TNBS-induced colitis [6]; RvE1 1.0 μg/mouse (0.05 mg/kg) i.p., TNBS alone 62.5%", "value": 25, "unit": "%"},
      {"measurement": "body weight loss", "setting": "TNBS-induced colitis [6]; RvE1 1 μg/mouse or 0.05 mg/kg, versus TNBS with vehicle", "value": "less weight loss"},
      {"measurement": "shortening and thickening of the colon", "setting": "TNBS-induced colitis [6]; RvE1 0.05 mg/kg", "value": "did not exhibit significant shortening and thickening of the colon"},
      {"measurement": "survival rate", "setting": "TNBS-induced colitis [6]; versus non-treated mice", "value": "significantly higher"},
      {"measurement": "histologic features of colitis", "setting": "TNBS-induced colitis [3]", "value": "less severe histologic features of colitis"}
    ]},
    {"compound": "COc1ccc2c(c1)c(CC(=O)O)c(C)n2C(=O)c1ccc(Cl)cc1", "note": "[indomethacin, reference compound]", "values": [
      {"measurement": "reduction of leukocyte numbers in the exudate", "setting": "[1]; zymosan peritonitis, dose not given", "value": "approximately 20%"}
    ]}
  ]
}
